Assay: xn = mol fraction of the nth substance listed
Conditions: Liquid; for viscosity: 2 kPa, Falling or rolling sphere viscometry; for speed of sound / mass density: 100 kPa; for speed of sound: Single path-length method; for mass density: Vibrating tube method

CNc1ccccc1 [N-methylaniline] + CCCC[n+]1ccn(C)c1.O=S(=O)([N-]S(=O)(=O)C(F)(F)F)C(F)(F)F
Conditions | mass density [kg/m3] | speed of sound [m/s] | viscosity [mPa·s]
298.15 K, x2 = 0 | 982.7 | 1564.5 | 1.94
298.15 K, x2 = 0.0958 | 1085.92 | 1478.4 | 3.78
298.15 K, x2 = 0.2004 | 1171.17 | 1416.5 | 7.41
298.15 K, x2 = 0.3061 | 1237.44 | 1372.1 | 10.89
298.15 K, x2 = 0.4074 | 1287.31 | 1337.5 | 15.38
298.15 K, x2 = 0.4939 | 1321.9 | 1312.1 | 19.38
298.15 K, x2 = 0.5905 | 1352.65 | 1286.8 | 23.54
298.15 K, x2 = 0.6834 | 1377.01 | 1267.9 | 28.71
298.15 K, x2 = 0.7988 | 1402.4 | 1250.4 | 35.25
298.15 K, x2 = 0.8751 | 1415.81 | 1241 | 40.87
303.15 K, x2 = 0 | 978.59 | 1546.1 | 1.73
303.15 K, x2 = 0.0958 | 1081.63 | 1462.9 | 3.32
303.15 K, x2 = 0.2004 | 1166.89 | 1402.2 | 6.34
303.15 K, x2 = 0.3061 | 1233.05 | 1358.7 | 9.2
303.15 K, x2 = 0.4074 | 1282.85 | 1324.7 | 12.87
303.15 K, x2 = 0.4939 | 1317.38 | 1299.7 | 16.31
303.15 K, x2 = 0.5905 | 1348.07 | 1275.1 | 19.68
303.15 K, x2 = 0.6834 | 1372.38 | 1256.5 | 23.79
303.15 K, x2 = 0.7988 | 1397.7 | 1239.1 | 29.03
303.15 K, x2 = 0.8751 | 1411.09 | 1229.8 | 33.45
308.15 K, x2 = 0 | 974.47 | 1528.3 | 1.55
308.15 K, x2 = 0.0958 | 1077.34 | 1447.9 | 2.93
308.15 K, x2 = 0.2004 | 1162.61 | 1388 | 5.47
308.15 K, x2 = 0.3061 | 1228.67 | 1345.4 | 7.87
308.15 K, x2 = 0.4074 | 1278.4 | 1312.1 | 10.91
308.15 K, x2 = 0.4939 | 1312.87 | 1287.6 | 13.85
308.15 K, x2 = 0.5905 | 1343.49 | 1263.3 | 16.65
308.15 K, x2 = 0.6834 | 1367.74 | 1245 | 20
308.15 K, x2 = 0.7988 | 1393.02 | 1228.1 | 24.27
308.15 K, x2 = 0.8751 | 1406.37 | 1218.9 | 27.84
313.15 K, x2 = 0 | 970.36 | 1511.5 | 1.4
313.15 K, x2 = 0.0958 | 1073.05 | 1433.7 | 2.61
313.15 K, x2 = 0.2004 | 1158.33 | 1373.8 | 4.76
313.15 K, x2 = 0.3061 | 1224.28 | 1332.5 | 6.8
313.15 K, x2 = 0.4074 | 1273.93 | 1299.9 | 9.36
313.15 K, x2 = 0.4939 | 1308.35 | 1275.7 | 11.86
313.15 K, x2 = 0.5905 | 1338.91 | 1251.8 | 14.24
313.15 K, x2 = 0.6834 | 1363.11 | 1233.8 | 17.04
313.15 K, x2 = 0.7988 | 1388.31 | 1217.1 | 20.57
313.15 K, x2 = 0.8751 | 1401.64 | 1208.1 | 23.51
318.15 K, x2 = 0 | 966.24 | 1492.8 | 1.27
318.15 K, x2 = 0.0958 | 1068.75 | 1417.6 | 2.34
318.15 K, x2 = 0.2004 | 1154.04 | 1359.9 | 4.17
318.15 K, x2 = 0.3061 | 1219.9 | 1319.4 | 5.94
318.15 K, x2 = 0.4074 | 1269.47 | 1287.4 | 8.12
318.15 K, x2 = 0.4939 | 1303.83 | 1263.6 | 10.24
318.15 K, x2 = 0.5905 | 1334.33 | 1240 | 12.3
318.15 K, x2 = 0.6834 | 1358.47 | 1222.4 | 14.69
318.15 K, x2 = 0.7988 | 1383.61 | 1206.1 | 17.64
318.15 K, x2 = 0.8751 | 1396.92 | 1197.1 | 20.12
323.15 K, x2 = 0 | 962.13 | 1476.2 | 1.16
323.15 K, x2 = 0.0958 | 1064.46 | 1403.2 | 2.11
323.15 K, x2 = 0.2004 | 1149.76 | 1346.5 | 3.68
323.15 K, x2 = 0.3061 | 1215.52 | 1306.7 | 5.23
323.15 K, x2 = 0.4074 | 1265 | 1275.5 | 7.1
323.15 K, x2 = 0.4939 | 1299.32 | 1252 | 8.9
323.15 K, x2 = 0.5905 | 1329.74 | 1228.6 | 10.72
323.15 K, x2 = 0.6834 | 1353.84 | 1211.5 | 12.79
323.15 K, x2 = 0.7988 | 1378.91 | 1195.2 | 15.29
323.15 K, x2 = 0.8751 | 1392.22 | 1186.4 | 17.41

— the NIST ThermoML archive (doi:10.1021/acs.jced.8b01095)
